This is an account of results in PMC2819003 (Angewandte Chemie (International ed. in English), 2010).

In the test the target is T1, DPPS; decaprenyl diphosphate synthase (Homo sapiens, UniProt Q5T2R2).
T1 sequence (Q5T2R2 1-415): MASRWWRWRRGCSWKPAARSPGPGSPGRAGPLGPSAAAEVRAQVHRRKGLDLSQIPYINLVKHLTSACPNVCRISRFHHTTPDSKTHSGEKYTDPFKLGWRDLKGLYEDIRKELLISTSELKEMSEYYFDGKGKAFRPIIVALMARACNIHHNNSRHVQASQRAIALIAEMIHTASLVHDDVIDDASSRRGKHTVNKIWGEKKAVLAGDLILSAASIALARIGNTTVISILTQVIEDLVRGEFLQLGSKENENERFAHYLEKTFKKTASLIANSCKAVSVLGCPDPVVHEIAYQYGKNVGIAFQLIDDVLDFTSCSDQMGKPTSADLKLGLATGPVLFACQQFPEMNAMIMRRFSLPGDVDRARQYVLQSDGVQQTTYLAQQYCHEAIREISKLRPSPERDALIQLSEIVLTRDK
T1 sequence (Q86YH6 1-399 partner): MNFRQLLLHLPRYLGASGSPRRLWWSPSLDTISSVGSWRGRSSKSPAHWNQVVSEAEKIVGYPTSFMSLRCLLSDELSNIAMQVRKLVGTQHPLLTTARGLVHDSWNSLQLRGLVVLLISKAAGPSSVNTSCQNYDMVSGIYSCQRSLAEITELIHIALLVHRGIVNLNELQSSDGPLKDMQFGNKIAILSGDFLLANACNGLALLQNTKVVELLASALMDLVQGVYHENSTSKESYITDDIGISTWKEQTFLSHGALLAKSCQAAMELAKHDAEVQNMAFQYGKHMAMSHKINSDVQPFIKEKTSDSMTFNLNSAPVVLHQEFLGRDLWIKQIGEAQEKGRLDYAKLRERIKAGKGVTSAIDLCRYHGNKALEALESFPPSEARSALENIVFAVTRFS
Briefly: DPPS inhibition assay. Format: biochemical.

In general, pIC50 refers to −log10 of the IC50, conventionally taken in molar units. Higher therefore signals a low IC50.

pIC50: −log10 of the molar value.

Compound `O=P(O)(O)C(O)(Cn1ccnc1)P(=O)(O)O` [zoledronate] gave a negative logarithm of the IC50 (pIC50) of 5.26.
